Source: patent US20220339248A1, “METHODS FOR TREATING NEOINTIMAL HYPERLASIA USING F11R/JAM-A INHIBITORS” (THE RESEARCH FOUNDATION FOR THE STATE UNIVERSITY OF NEW YORK, priority 2019, published 2022)
“Also recorded” adds a separate entry of the source. Non-standard residues stand in square brackets, D forms with d.

Key:
uremic C57BL/6 mice = test: Carotid artery partial ligation (focal LCA stenosis) model of neointimal hyperplasia in 5/6 nephrectomized uremic mice; type: in vivo, mouse; settings: for mean Intima Index (intima area/intima+media area) from 1 LCA location with biggest focal stenosis: FIG. 7, control 0.47±0.15, U-Mann Whitney p=0.039
Experimental: Carotid artery ligation was performed on 14 uremic C57BL/6 mice that underwent 5/6 nephrectomy. One week after nephrectomy, partial ligation of the left carotid artery (LCA) was performed on each mouse. Focal LCA stenosis was created by placing 9-0 nylon suture at 1 mm proximal to the carotid bifurcation (mid-focal stenosis) around the artery using a 35-gauge blunt needle (World precision Instruments, Inc., Sarasota, Fla.). Then the needle mandrel was gently removed to restore blood flow.
Mice were fed a regular mouse diet and divided into 2 groups of 7 mice each; the experimental group received Peptide 4D while the Control group received saline injections by intraperitoneal route for 21 days, as this was the time shown in earlier studies to correlate with development of neointimal hyperplasia following partial ligation of the carotid artery.
The mice were then euthanized on day 21 and both LCA and right carotid artery (RCA) were excised for analysis. Specimens were embedded in paraffin. Serial sections (6 μm thick) were collected at 200-μm intervals of the LCA from mid-focal stenosis as well as from the RCA serving as lesion control. Data were analyzed qualitatively and quantitatively using Image J software. The two groups were compared for differences in mean Intima Area and Intima Index, defined as the ratio of intima area divided by intima plus media area.

F11R = biological target: T1, F11R (Homo sapiens, UniProt Q9Y624); settings: statement in words; activity described in Babinska et al. and U.S. Pat. Nos. 9,556,235 and 8,557,957; cited from earlier work
T1 sequence (Q9Y624 28-299): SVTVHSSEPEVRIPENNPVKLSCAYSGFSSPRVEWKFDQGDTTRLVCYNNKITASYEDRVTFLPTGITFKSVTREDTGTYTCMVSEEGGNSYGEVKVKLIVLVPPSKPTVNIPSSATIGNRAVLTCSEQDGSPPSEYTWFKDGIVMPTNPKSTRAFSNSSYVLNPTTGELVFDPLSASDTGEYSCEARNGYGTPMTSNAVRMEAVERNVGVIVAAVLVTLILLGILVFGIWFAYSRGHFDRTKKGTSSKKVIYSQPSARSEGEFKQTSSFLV

Substance: NH2-(dK)-SVT-(dR)-EDTGTYTC-CONH2 (H-[dK]SVT[dR]EDTGTYTC-NH2; SMILES CC(C)[C@H](NC(=O)[C@H](CO)NC(=O)[C@H](N)CCCCN)C(=O)N[C@H](C(=O)N[C@H](CCCNC(=N)N)C(=O)N[C@@H](CCC(=O)O)C(=O)N[C@@H](CC(=O)O)C(=O)N[C@H](C(=O)NCC(=O)N[C@H](C(=O)N[C@@H](Cc1ccc(O)cc1)C(=O)N[C@H](C(=O)N[C@@H](CS)C(N)=O)[C@@H](C)O)[C@@H](C)O)[C@@H](C)O)[C@@H](C)O) [Peptide 4D]
- mean Intima Index (intima area/intima+media area) from 10 LCA locations (uremic C57BL/6 mice; FIG. 6, 21 days, n=7, control 0.27±0.13, U-Mann Whitney p=0.0079): significantly less
- mean Intima Index (intima area/intima+media area) from 1 LCA location with biggest focal stenosis (uremic C57BL/6 mice; 21 days, n=7): significantly less
- mean Intima Index (intima area/intima+media area) from 1 LCA location with biggest focal stenosis (uremic C57BL/6 mice; 21 days, n=7, listed as peptide 4D): 0.31±0.14
- intima area relative to distance from the ligation point (mid focal stenosis morphometry) (uremic C57BL/6 mice; FIGS. 3A-3B, 4, LCA, 21 days, versus saline control, n=7): significantly smaller; also recorded: significantly decreased intima area
- effect on neointimal hyperplasia (uremic C57BL/6 mice; carotid ligation model, 21 days, versus saline control): significantly inhibits neointimal hyperplasia
- number of mice whose LCA had severe neointimal hyperplasia (uremic C57BL/6 mice; of 7 experimental mice, all control LCA severe, two with complete luminal occlusion): one

Substance: SSEPEVRIPENNPV (Laboratory synthesized sequence) [SEQ ID NO: 16]
- inhibition of the biological activities of F11R (F11R): inhibitor of the biological activities of F11R

Substance: KSVTREDTGTYTC (Laboratory synthesized sequence) [SEQ ID NO: 2]
- inhibition of the biological activities of F11R (F11R): inhibitor of the biological activities of F11R

Substance: SVTVHSSEPEVRIPENNPVKLSC (SVTVHSSEPEVXIPENNPVKLSC; Laboratory synthesized sequence; (12)..(12) Xaa can be any naturally occurring amino acid) [SEQ ID NO: 11, 23-amino acid N-terminal peptide of F11R/JAM-A]
- inhibition of the biological activities of F11R (F11R): inhibitor of the biological activities of F11R
